Patent USRE40086E1, “Method for treating bacterial infection with novel 7-substituted-9-substituted amino 6-demethyl-6-deoxytetracyclines” (Wyeth Holdings Corporation, priority 1991, dated 2008)
Converted amounts (≈) assume the structure as drawn.

How the values were obtained:
Test in all cases: MIC, agar dilution
Assay type in all cases: cell-based
[1] = system: S. aureus UBMS 88-7 (tetK); details: S. aureus UBMS 88-7 (tetK)
[2] = system: E. coli UBMS 88-2 (Sensitive); details: E. coli UBMS 88-2 (Sensitive)
[3] = system: S. aureus UBMS 88-5 (tetM); details: S. aureus UBMS 88-5 (tetM)
[4] = system: S. aureus IVES 2943 (meth. resistant); details: S. aureus IVES 2943 (meth. resistant)
E. faecalis 12201 = details: E. faecalis 12201
[5] = system: S. aureus ATCC 29213 (Sensitive); details: S. aureus ATCC 29213 (Sensitive)
E. coli ATCC 25922 = details: E. coli ATCC 25922
[6] = system: S. aureus Smith (Sensitive); details: S. aureus Smith (Sensitive)
E. coli UBMS 88-1 (tetB) = details: E. coli UBMS 88-1 (tetB)
E. faecalis ATCC 29212 = details: E. faecalis ATCC 29212
[7] = system: S. aureus UBMS 88-4 (Sensitive); details: S. aureus UBMS 88-4 (Sensitive)
[8] = system: S. aureus IVES 1983 (meth. resistant); details: S. aureus IVES 1983 (meth. resistant)
[9] = system: S. aureus UBMS 90-3 (Sensitive); details: S. aureus UBMS 90-3 (Sensitive)
[10] = system: S. aureus UBMS 90-2 (tetM); details: S. aureus UBMS 90-2 (tetM)
[11] = system: E. coli UBMS 89-2 (Sensitive); details: E. coli UBMS 89-2 (Sensitive)
[12] = system: S. aureus UBMS 90-1 (tetM); details: S. aureus UBMS 90-1 (tetM)
[13] = system: S. haemolyticus AVAH 88-3; details: S. haemolyticus AVAH 88-3
E. coli UBMS 89-1 (tetM) = details: E. coli UBMS 89-1 (tetM)

| Compound | MIC [1] | MIC [2] | MIC [3] | MIC [4] | MIC (E. faecalis 12201) | MIC [5] | MIC (E. coli ATCC 25922) | MIC [6] | MIC (E. coli UBMS 88-1 (tetB)) | MIC (E. faecalis ATCC 29212) | MIC [7] | MIC [8] | MIC [9] | MIC [10] | MIC [11] | MIC [12] | MIC [13] | MIC (E. coli UBMS 89-1 (tetM)) |
| --- | --- | --- | --- | --- | --- | --- | --- | --- | --- | --- | --- | --- | --- | --- | --- | --- | --- | --- |
| CC(=O)Nc1cc(N(C)C)c2c(c1O)C(=O)C1=C(O)[C@]3(O)C(=O)C(C(N)=O)=C(O)[C@@H](N(C)C)[C@@H]3C[C@@H]1C2 [B, 9-(Acetylamino)-7-(dimethylamino)-6-demethyl-6-deoxytetracycline] | 4 µg/mL (≈ 7.77 µM) | 2 µg/mL (≈ 3.89 µM) | 0.12 µg/mL (≈ 0.233 µM) | 64 µg/mL (≈ 124 µM) | 0.5 µg/mL (≈ 0.972 µM) | 0.12 µg/mL (≈ 0.233 µM) | 2 µg/mL (≈ 3.89 µM) | 0.12 µg/mL (≈ 0.233 µM) | >128 µg/mL | 0.12 µg/mL (≈ 0.233 µM) | ≦0.06 μg/ml |  |  |  |  |  |  |  |
| CN(C)c1cc(NS(=O)(=O)c2cccc([N+](=O)[O-])c2)c(O)c2c1CC1CC3C(N(C)C)C(O)=C(C(N)=O)C(=O)C3(O)C(O)=C1C2=O (stereo not drawn) [BB] | 4 µg/mL (≈ 6.08 µM) | 4 µg/mL (≈ 6.08 µM) |  | 4 µg/mL (≈ 6.08 µM) |  | 0.06 µg/mL (≈ 0.0912 µM) | 2 µg/mL (≈ 3.04 µM) | 0.25 µg/mL (≈ 0.38 µM) | >32 µg/mL | 0.12 µg/mL (≈ 0.182 µM) | 1 µg/mL (≈ 1.52 µM) | 8 µg/mL (≈ 12.2 µM) | 0.12 µg/mL (≈ 0.182 µM) | 0.5 µg/mL (≈ 0.76 µM) | 16 µg/mL (≈ 24.3 µM) | 2 µg/mL (≈ 3.04 µM) | 4 µg/mL (≈ 6.08 µM) |  |
| CN(C)c1cc(NS(=O)(=O)c2ccccc2)c(O)c2c1CC1CC3C(N(C)C)C(O)=C(C(N)=O)C(=O)C3(O)C(O)=C1C2=O (stereo not drawn) [CC, 7-(Dimethylamino)-9-[(phenylsulfonyl)amino]-6-demethyl-6-deoxytetracycline] | 4 µg/mL (≈ 6.53 µM) | 8 µg/mL (≈ 13.1 µM) | 4 µg/mL (≈ 6.53 µM) | 4 µg/mL (≈ 6.53 µM) |  | ≦0.015 μg/ml | 2 µg/mL (≈ 3.26 µM) | 4 µg/mL (≈ 6.53 µM) | 16 µg/mL (≈ 26.1 µM) | 0.06 µg/mL (≈ 0.0979 µM) | 0.03 µg/mL (≈ 0.049 µM) | 4 µg/mL (≈ 6.53 µM) | 4 µg/mL (≈ 6.53 µM) | 0.06 µg/mL (≈ 0.0979 µM) | 16 µg/mL (≈ 26.1 µM) | 4 µg/mL (≈ 6.53 µM) | 4 µg/mL (≈ 6.53 µM) |  |
| CCN(CC)c1cc(NC=O)c(O)c2c1C[C@H]1C[C@H]3[C@H](N(C)C)C(O)=C(C(N)=O)C(=O)[C@@]3(O)C(O)=C1C2=O.O=S(=O)(O)O.O=S(=O)(O)O [D, 7-(Diethylamino)-9-(formylamino)-6-demethyl-6-deoxytetracycline disulfate] | 2 µg/mL | 0.5 µg/mL | 0.25 µg/mL | 4 µg/mL | 1 µg/mL | ≦0.015 μg/ml | 0.5 µg/mL | 0.03 µg/mL | >32 µg/mL | 0.12 µg/mL | 0.12 µg/mL | 4 µg/mL | 0.06 µg/mL | 0.12 µg/mL | 0.5 µg/mL | 0.5 µg/mL |  |  |
| CN(C)c1cc(NS(=O)(=O)c2cccs2)c(O)c2c1CC1CC3C(N(C)C)C(O)=C(C(N)=O)C(=O)C3(O)C(O)=C1C2=O (stereo not drawn) [DD, 7-(Dimethylamino)-9-[(2-thienylsulfonyl)amino)-6-demethyl-6-deoxytetracycline] | 2 µg/mL (≈ 3.23 µM) | 8 µg/mL (≈ 12.9 µM) | 0.5 µg/mL (≈ 0.808 µM) | 4 µg/mL (≈ 6.47 µM) |  | 0.03 µg/mL (≈ 0.0485 µM) | 4 µg/mL (≈ 6.47 µM) | 0.03 µg/mL (≈ 0.0485 µM) | 32 µg/mL (≈ 51.7 µM) | 0.25 µg/mL (≈ 0.404 µM) | 0.5 µg/mL (≈ 0.808 µM) | 4 µg/mL (≈ 6.47 µM) | 0.25 µg/mL (≈ 0.404 µM) | 0.25 µg/mL (≈ 0.404 µM) | 16 µg/mL (≈ 25.9 µM) | 1 µg/mL (≈ 1.62 µM) | 2 µg/mL (≈ 3.23 µM) |  |
| CN(C)c1cc(NS(=O)(=O)c2ccc(Cl)cc2)c(O)c2c1CC1CC3C(N(C)C)C(O)=C(C(N)=O)C(=O)C3(O)C(O)=C1C2=O (stereo not drawn) [EE, 9-[[(4-Chlorophenyl)sulfonyl]amino)-7-(dimethylamino)-6-demethyl-6-deoxytetracycline] | 1 µg/mL (≈ 1.55 µM) | >32 µg/mL | 0.12 µg/mL (≈ 0.185 µM) | 0.5 µg/mL (≈ 0.773 µM) |  | 0.03 µg/mL (≈ 0.0464 µM) | >32 µg/mL | 0.12 µg/mL (≈ 0.185 µM) | >32 µg/mL | 0.06 µg/mL (≈ 0.0927 µM) | 0.12 µg/mL (≈ 0.185 µM) | 1 µg/mL (≈ 1.55 µM) | 0.12 µg/mL (≈ 0.185 µM) | 0.12 µg/mL (≈ 0.185 µM) | >32 µg/mL | 0.25 µg/mL (≈ 0.386 µM) |  |  |
| CN(C)c1cc(NS(C)(=O)=O)c(O)c2c1CC1CC3C(N(C)C)C(O)=C(C(N)=O)C(=O)C3(O)C(O)=C1C2=O (stereo not drawn) [FF, 7-(Dimethylamino)-9-[(methylsulfonyl)amino]-6-demethyl-6-deoxytetracycline] | 8 µg/mL (≈ 14.5 µM) | 2 µg/mL (≈ 3.63 µM) | 0.25 µg/mL (≈ 0.454 µM) | 16 µg/mL (≈ 29.1 µM) |  | 0.03 µg/mL (≈ 0.0545 µM) | 2 µg/mL (≈ 3.63 µM) | 0.12 µg/mL (≈ 0.218 µM) | 8 µg/mL (≈ 14.5 µM) | 0.06 µg/mL (≈ 0.109 µM) | 0.25 µg/mL (≈ 0.454 µM) | 16 µg/mL (≈ 29.1 µM) | 0.12 µg/mL (≈ 0.218 µM) | 0.06 µg/mL (≈ 0.109 µM) | 2 µg/mL (≈ 3.63 µM) | 0.25 µg/mL (≈ 0.454 µM) |  |  |
| COC(=O)Nc1cc(N(C)C)c2c(c1O)C(=O)C1=C(O)[C@]3(O)C(=O)C(C(N)=O)=C(O)[C@@H](N(C)C)C3CC1C2 (stereo partly drawn) [HH, [7S-(7α,10aα)]-[9-(Aminocarbonyl)-4,7-bis(dimethylamino)-5,5a,6,6a,7,10,10a,12-octahydro-1,8,10a,11-tetrahydroxy-10,12-dioxo-2-naphthacenyl]carbamic acid methyl ester] | 0.5 µg/mL (≈ 0.942 µM) |  | 0.25 µg/mL (≈ 0.471 µM) | 2 µg/mL (≈ 3.77 µM) | 2 µg/mL (≈ 3.77 µM) | ≦0.015 μg/ml | 2 µg/mL (≈ 3.77 µM) | 0.03 µg/mL (≈ 0.0565 µM) | 16 µg/mL (≈ 30.2 µM) | 0.25 µg/mL (≈ 0.471 µM) | 0.03 µg/mL (≈ 0.0565 µM) | 2 µg/mL (≈ 3.77 µM) | 0.03 µg/mL (≈ 0.0565 µM) | 0.25 µg/mL (≈ 0.471 µM) | 4 µg/mL (≈ 7.54 µM) | 1 µg/mL (≈ 1.88 µM) | 0.25 µg/mL (≈ 0.471 µM) | 4 µg/mL (≈ 7.54 µM) |
| CN(C)CC(=O)Nc1cc(N(C)C)c2c(c1O)C(=O)C1=C(O)C3(O)C(=O)C(C(N)=O)=C(O)C(N(C)C)C3CC1C2.O=S(=O)(O)O (stereo not drawn) [II, 7-(Dimethylamino)-9-[[(dimethylamino)acetyl]amino]-6-demethyl-6-deoxytetracycline sulfate] | 0.06 µg/mL |  | 0.12 µg/mL | 1 µg/mL | 0.12 µg/mL | 0.03 µg/mL | 0.12 µg/mL | 0.12 µg/mL | 0.25 µg/mL | 0.03 µg/mL | 0.06 µg/mL | 1 µg/mL | 0.06 µg/mL | 0.06 µg/mL | 0.25 µg/mL | 0.25 µg/mL | 0.25 µg/mL | 0.12 µg/mL |
